From US20080249130A1, “Gut microsomal triglyceride transport protein inhibitors” (Sirtris Pharmaceuticals, Inc., priority 2007, published 2008)
“And” between values parts separate entries of the source, which are not always exact repeats. Equal values may be shown once. Where a name gives a salt, the structure may show the parent alone. Read-outs that look alike come from different tables or passages of the source.

Assays:
[1] = test system: secretion of ApoB by HepG2 cells; assay: ApoB secretion inhibition assay in HepG2 cells (ApoB ELISA); assay type: cell-based, human
Description: The ability of the compounds of the present invention to inhibit the secretion of ApoB can be determined using the following cell-based assay, which measures the secretion of ApoB by HepG2 cells. ApoB has two possible metabolic fates: entrance into the lipoprotein assembly pathway within the lumen of the endoplasmic reticulum (ER), or degradation in the cytoplasm by the ubiquitin-dependent proteasome. The destiny of ApoB is determined by the relative availability of individual lipids, which is controlled by MTP (Davis, Biochim. Biophys. Acta, 1999, 1440, 1-31).
HepG2 cells (ATCC, HB-8065) are seeded in 96-well plates in DMEM with 10% FBS+pen/strep at a density of 1×10^5 cells/well (100 μl /well). Twenty-four hours after seeding, the plate is aspirated and the media changed to DMEM with 1% BSA and pen/strep, and the cells are serum-starved for 24 hours. After 24 hour serum-starvation, the plate is aspirated again and the cells are then treated for 24 hours with or without compound in DMEM with 1% BSA, 0.3 mM OA (OA complexed to BSA at a 2:1 ratio) and pen/strep. The final concentration of DMSO in the assay (from compound and control) is 0.1%. After 24 hour treatment, conditioned media is collected in an empty 96-well plate.
Cellular viability is measured using the cell permeable dye, AlamarBlue™. This dye undergoes electron reduction in viable cells but not dead cells. The reduced dye product gives a fluorescent signal which can be monitored with a fluorescence plate reader (excitation 545 nm and emission 575 nm). The amount of fluorescence generated in a given well is proportional to the number of viable cells. After collection, the 96-well plate is re-fed with 100 μl media (DMEM with 10% FBS) and 10 μl Alamar Blue™ per well, incubated for 2 hours and then read in a fluorescence plate reader.
ApoB secretion from HepG2 cells is quantitated by testing the conditioned media at […] using an ApoB ELISA kit (ALerCHEK) according to the manufacturer's instructions. The ELISA assay for ApoB is performed as follows: a polyclonal antibody against human ApoB (Chemicon) is diluted 1:1000 in carbonate-bicarbonate buffer and 100 μl are added to each well of a 96-well plate (NUNC). After 5 hours incubation at room temperature, the antibody solution is removed and wells are washed four times with PBS/0.05% TweenD 20 (Cayman Chemical Co.). Non-specific sites on the plastic plate are blocked by incubating wells for 1 to 1.5 hours in a solution of 0.5% BSA and 0.1% TweenD 20 made in PBS. One hundred microliters of a 1:20 dilution of growth medium from the HepG2 cells (made in 0.004% TweenD 20/1% BSA in PBS) is added to each well and incubated for 3 hours at room temperature. Wells are aspirated and washed four times (0.05% TweenD 20 in PBS) prior to adding 100 μl of a 1:1000 dilution (5 μg/ml) of the secondary antibody, mouse anti-human ApoB (Chemicon). After 2 hours incubation at room temperature, this solution is aspirated and the wells are again washed 4 times as above. One hundred microliters of peroxidase-conjugated affinity purified goat anti-mouse IgG (H+L) (Jackson ImmunoResearch Laboratories) (1:10,000 dilution in PBS/1% BSA/0.1% TweenD 20) is then added to each well and incubated for 1 hour at room temperature. After aspirating, the wells are washed 4 times as above and 50 μl of 1-step Ultra TMB ELISA reagent (Pierce) is added to each well and incubated for 5 minutes. The reaction is stopped by the addition of 50 μl of 2 NH2SO4 and absorbance of each well is read at 450 nm.

[2] = target: MTP (Homo sapiens, UniProt P55157); assay: In vitro inhibition of MTP, triacylglycerol transfer assay with donor and acceptor liposomes (fluorescence); assay type: biochemical
MTP, sequence (P55157 19-894, species assumed): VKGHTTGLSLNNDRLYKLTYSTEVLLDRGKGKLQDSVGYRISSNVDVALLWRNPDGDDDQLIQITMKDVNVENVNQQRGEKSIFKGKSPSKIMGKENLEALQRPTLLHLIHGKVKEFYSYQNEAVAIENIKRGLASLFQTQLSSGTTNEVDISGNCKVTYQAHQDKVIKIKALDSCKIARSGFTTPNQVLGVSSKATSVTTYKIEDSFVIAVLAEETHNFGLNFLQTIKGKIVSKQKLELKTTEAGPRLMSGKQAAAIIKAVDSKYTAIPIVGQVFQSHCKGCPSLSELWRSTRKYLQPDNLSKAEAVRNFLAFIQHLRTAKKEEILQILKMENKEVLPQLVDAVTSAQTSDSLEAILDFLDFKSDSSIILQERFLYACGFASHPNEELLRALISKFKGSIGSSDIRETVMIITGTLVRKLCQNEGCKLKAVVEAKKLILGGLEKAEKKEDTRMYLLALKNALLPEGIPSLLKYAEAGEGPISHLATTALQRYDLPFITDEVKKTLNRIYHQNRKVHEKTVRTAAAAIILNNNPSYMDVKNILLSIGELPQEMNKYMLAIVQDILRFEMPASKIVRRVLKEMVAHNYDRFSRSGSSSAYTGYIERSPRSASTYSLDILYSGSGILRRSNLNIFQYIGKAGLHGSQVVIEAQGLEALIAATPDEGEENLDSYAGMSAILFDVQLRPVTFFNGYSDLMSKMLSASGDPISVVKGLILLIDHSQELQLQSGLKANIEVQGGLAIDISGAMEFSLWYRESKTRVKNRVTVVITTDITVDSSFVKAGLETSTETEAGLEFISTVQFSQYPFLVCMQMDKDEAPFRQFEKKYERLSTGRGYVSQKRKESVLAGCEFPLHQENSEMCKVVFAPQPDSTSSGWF
MTP, sequence (P07237 18-508 partner, species assumed): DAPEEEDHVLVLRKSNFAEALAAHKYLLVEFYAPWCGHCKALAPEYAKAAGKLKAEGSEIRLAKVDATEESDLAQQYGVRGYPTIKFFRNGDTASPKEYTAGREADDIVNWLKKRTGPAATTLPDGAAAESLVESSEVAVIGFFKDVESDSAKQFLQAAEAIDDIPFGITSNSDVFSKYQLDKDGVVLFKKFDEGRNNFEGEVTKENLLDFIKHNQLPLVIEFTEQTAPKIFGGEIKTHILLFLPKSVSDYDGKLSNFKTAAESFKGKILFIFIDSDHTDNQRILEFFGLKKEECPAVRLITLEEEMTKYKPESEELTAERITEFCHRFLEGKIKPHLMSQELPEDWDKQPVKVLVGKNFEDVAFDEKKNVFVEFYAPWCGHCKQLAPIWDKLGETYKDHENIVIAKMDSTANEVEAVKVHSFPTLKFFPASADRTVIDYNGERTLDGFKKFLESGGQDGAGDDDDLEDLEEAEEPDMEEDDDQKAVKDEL
Description: This assay is commercially available (Cat. #D400, Chylos Inc., New York). Liposomes are pipetted in 5 μl aliquots into the wells of a black fluorescence microtiter plate, followed by addition of 5 μl of water and an incubation of 2-5 min to allow the samples to equilibrate to rt. Next, 5 μl of compound dissolved in DMSO is added to the vesicles. The reaction is initated by the addition of 5 μl MTP, followed by incubation for 30 min at room temperature. […] Time of incubation can be increased to measure low activity in different samples. In such situations, samples are prepared just prior to measuring fluorescence units. For this purpose, isopropanol is added to substrate vesicles about 5 min prior to fluorescence measurement as the fluorescence readings in isopropanol decrease with time.

[3] = Homo sapiens, HepG2, Table 6, assay of Example 2, read-out: IC50 ApoB Assay
[4] = Table 6, assay of Example 3, read-out: IC50 Enzyme Assay

Row | Compound | IC50 [1, 3] [µM] | IC50 [2, 4] | further results
1 | CN(Cc1ccc(F)cc1)C(=O)[C@@H](NC(=O)c1nc2ccc(NC(=O)c3ccccc3-c3ccc(C(C)(C)C)cc3)cc2s1)c1ccccc1 (single isomer, unassigned) |  |  | IC50 ([1]; Homo sapiens, HepG2, Tables 2-5, second symbol of the cell, read-out: IC50 Apo B Secretion Assay (Example 2)): < 0.1 µM; IC50 ([2]; Tables 2-5, first symbol of the cell, read-out: IC50 Tri-acylglycerol (TAG) Transfer Assay (Example 3)): < 0.1 µM
2 | CN(Cc1ccc(F)cc1)C(=O)[C@@H](NC(=O)c1ccc2nc(NC(=O)c3ccccc3C3CCNCC3)ccc2c1)c1ccccc1 [Compound 1, (S)—N-(2-((4-fluorobenzyl)(methyl)amino)-2-oxo-1-phenylethyl)-2-(2-(piperidin-4-yl)benzamido)quinoline-6-carboxamide hydrochloride] | 6 | > 1 µM | 
3 | CN(Cc1ccc(F)cc1)C(=O)[C@@H](NC(=O)c1ccc2nc(NC(=O)c3ccccc3C3CCNC3)ccc2c1)c1ccccc1 (stereo partly drawn) [Compound 2, N—((S)-2-((4-fluorobenzyl)(methyl)amino)-2-oxo-1-phenylethyl)-2-(2-(pyrrolidin-3-yl)benzamido)quinoline-6-carboxamide hydrochloride] | 3.5 | 0.53 µM | 
4 | CN(Cc1ccc(F)cc1)C(=O)[C@@H](NC(=O)C12CCC(CNC(=O)c3ccccc3-c3ccc(C(C)(C)C)cc3)(CC1)CC2)c1ccccc1 [Compound 10, (S)-4-((4′-tert-butylbiphenyl-2-ylcarboxamido)methyl)-N-(2-((4-fluorobenzyl)(methyl)amino)-2-oxo-1-phenylethyl)bicyclo[2.2.2]octane-1-carboxamide] | 0.054 | 0.033 µM | 
5 | CC(C)(C)c1ccc(-c2ccccc2C(=O)Nc2nc(-c3cccc(C(=O)N[C@H](C(=O)N4CCCC4)c4ccccc4)c3)cs2)cc1 [Compound 12, (S)-4′-tert-butyl-N-(4-(3-(2-oxo-1-phenyl-2-(pyrrolidin-1-yl)ethylcarbamoyl)phenyl)thiazol-2-yl)biphenyl-2-carboxamide] | 0.041 | 0.002 µM | 
6 | CN(Cc1ccc(F)cc1)C(=O)[C@@H](NC(=O)c1nc2ccc(NC(=O)c3ccccc3-n3cccc3)cc2s1)c1ccccc1 [Compound 30] | 0.031 | 0.045 µM | 
7 | CC(C)CN(C)C(=O)[C@@H](NC(=O)C12CCC(NC(=O)c3ccccc3-c3ccc(C(C)(C)C)cc3)(CC1)CC2)c1ccccc1 [Compound 102] | 0.0341 |  | 
8 | CC(C)CN(C)C(=O)[C@@H](NC(=O)C12CCC(NC(=O)c3ccccc3-c3ccc(C(C)C)cc3)(CC1)CC2)c1ccccc1 [Compound 106] | 0.0402 |  | 
9 | COc1cccc(C(=O)NC23CCC(C(=O)N[C@H](C(=O)N(C)Cc4ccc(F)cc4)c4ccccc4)(CC2)CC3)c1-c1ccc(C(C)C)cc1 [Compound 111] | 0.11 |  | 
10 | CCCCN(C)C(=O)[C@@H](NC(=O)C12CCC(NC(=O)c3cccc(OC)c3-c3ccc(C(C)C)cc3)(CC1)CC2)c1ccccc1 [Compound 115] | 0.0993 |  | 
11 | COc1cccc(C(=O)NC23CCC(C(=O)N[C@H](C(=O)N(C)CC(C)C)c4ccccc4)(CC2)CC3)c1-c1ccc(C(C)C)cc1 [Compound 116] | 0.247 |  | 
12 | CN(Cc1ccc(F)cc1)C(=O)[C@@H](NC(=O)c1ccc2nc(NC(=O)c3ccccc3-c3ccc(C(C)(C)C)cc3)ccc2c1)c1ccccc1 [compound 3, reference compound] |  |  | IC50 ([1]; Homo sapiens, Table 1, HepG2 cells, read-out: gMTP IC50 ApoB Secretion Assay (Example 2)): 0.0016 µM

Second part, led by results:

Row | IC50 [1, 3] [µM] | IC50 [2, 4] | Compound | further results
13 | 0.008 | 0.0109 µM | CN(Cc1ccc(F)cc1)C(=O)[C@@H](NC(=O)c1ccc2nc(NC(=O)c3ccccc3-c3cn4ccsc4n3)ccc2c1)c1ccccc1 [Compound 3, (S)—N-(2-((4-fluorobenzyl)(methyl)amino)-2-oxo-1-phenylethyl)-2-(2-(imidazo[2,1-b]thiazol-6-yl)benzamido)quinoline-6-carboxamide] | 
14 | 0.003 | 0.0139 µM and 0.003 µM | CN(Cc1ccc(F)cc1)C(=O)[C@@H](NC(=O)c1nc2ccc(NC(=O)c3ccccc3-c3ccc(C(C)(C)C)cc3)cc2s1)c1ccccc1 [Compound 4, (S)-6-(4′-tert-butylbiphenyl-2-ylcarboxamido)-N-(2-((4-fluorobenzyl)(methyl)amino)-2-oxo-1-phenylethyl)benzo[d]thiazole-2-carboxamide] | 
15 | 0.0065 | 0.0095 µM | CCCCN(C)C(=O)[C@@H](NC(=O)c1nc2ccc(NC(=O)c3ccccc3-c3ccc(C(C)(C)C)cc3)cc2s1)c1ccccc1 [Compound 5] | 
16 | 0.001 | 0.0026 µM | CC(C)(C)c1ccc(-c2ccccc2C(=O)Nc2ccc3nc(C(=O)N[C@H](C(=O)N4CCCC4)c4ccccc4)sc3c2)cc1 [Compound 7] | 
17 | 0.0031 | 0.0084 µM | CCCCCNC(=O)[C@@H](NC(=O)c1nc2ccc(NC(=O)c3ccccc3-c3ccc(C(C)(C)C)cc3)cc2s1)c1ccccc1 [Compound 8] | 
18 | 0.0088 | 0.0052 µM | CC(C)(C)c1ccc(-c2ccccc2C(=O)Nc2ccc3nc(C(=O)N[C@H](C(=O)N4CCC(F)(F)C4)c4ccccc4)sc3c2)cc1 [Compound 14] | 
19 | 0.0237 | 0.015 µM | CN(Cc1ccc(F)cc1)C(=O)[C@@H](NC(=O)c1nc2ccc(NC(=O)c3ccccc3-c3cn4ccsc4n3)cc2s1)c1ccccc1 [Compound 24, (S)—N-(2-((4-fluorobenzyl)(methyl)amino)-2-oxo-1-phenylethyl)-6-(2-(imidazo[2,1-b]thiazol-6-yl)benzamido)benzo[d]thiazole-2-carboxamide] | 
20 | 0.0261 |  | CCCCN(C)C(=O)[C@@H](NC(=O)C12CCC(NC(=O)c3ccccc3-c3ccc(C(C)C)cc3)(CC1)CC2)c1ccccc1 [Compound 103] | 
21 | 0.0035 |  | CC(C)c1ccc(-c2ccccc2C(=O)NC23CCC(C(=O)N[C@H](C(=O)N4CCCC4)c4ccccc4)(CC2)CC3)cc1 [Compound 104] | 
22 | 0.0134 |  | CC(C)c1ccc(-c2ccccc2C(=O)NC23CCC(C(=O)N[C@H](C(=O)N(C)Cc4ccc(F)cc4)c4ccccc4)(CC2)CC3)cc1 [Compound 105] | 
23 | 0.0017 |  | Cc1cccc(C(=O)NC23CCC(C(=O)N[C@H](C(=O)N4CCCC4)c4ccccc4)(CC2)CC3)c1-c1ccc(C(C)(C)C)cc1 [Compound 107] | IC50 ([1]; Table 6, assay of Example 2, read-out: IC50 ApoB Assay): 0.0015 µM
24 | 0.0012 |  | Cc1cccc(C(=O)NC23CCC(C(=O)N[C@H](C(=O)N(C)Cc4ccc(F)cc4)c4ccccc4)(CC2)CC3)c1-c1ccc(C(C)(C)C)cc1 [Compound 108] | 
25 | 0.0082 |  | COc1cccc(C(=O)NC23CCC(C(=O)N[C@H](C(=O)N4CCCC4)c4ccccc4)(CC2)CC3)c1-c1ccc(C(C)(C)C)cc1 [Compound 109] | 
26 | 0.0146 |  | COc1cccc(C(=O)NC23CCC(C(=O)N[C@H](C(=O)N(C)Cc4ccc(F)cc4)c4ccccc4)(CC2)CC3)c1-c1ccc(C(C)(C)C)cc1 [Compound 110] | 
27 | 0.0044 |  | Cc1cccc(C(=O)NC23CCC(C(=O)N[C@H](C(=O)N4CCCC4)c4ccccc4)(CC2)CC3)c1-c1ccc(C(C)C)cc1 [Compound 113] | 
28 | 0.0035 |  | Cc1cccc(C(=O)NC23CCC(C(=O)N[C@H](C(=O)N(C)Cc4ccc(F)cc4)c4ccccc4)(CC2)CC3)c1-c1ccc(C(C)C)cc1 [Compound 114] | 
